Data: ChEMBL document CHEMBL3763035, “Neuroprotective profile of pyridothiazepines with blocking activity of the mitochondrial Na(+)/Ca(2+) exchanger” (Eur J Med Chem, 2016)
The source made the active and inactive calls. The rule behind the calls is not given here.

Tests used:
[1] = tested on: SH-SY5Y; assay: Cytotoxicity in human SH-SY5Y cells assessed as ROS generation after 24 hrs by H2DCFDA/Hoechst dye based fluorescence assay; assay type: cell-based
[2] = organism: Bos taurus; assay: Inhibition of sodium channel in bovine chromaffin cells assessed as blockade of inward sodium currents by perforated patch clamp method; assay type: cell-based
[3] = tested on: SH-SY5Y; assay: Neuroprotective activity against potassium ion-induced cytotoxicity in human SH-SY5Y cells assessed as cell viability at 3 uM pretreated for 24 hrs measured 24 hrs post potassium ion challenge by MTT assay relative to control; assay type: functional; conditions: read-out: Activity
[4] = tested on: Hippocampus; assay: Neuroprotective activity against glutamate-induced neuronal cell death in Sprague-Dawley rat brain hippocampal slices assessed as cell viability at 10 uM incubated 4 hrs by MTT assay relative to control; assay type: functional; conditions: read-out: Activity
[5] = Neuroprotective activity against veratradine-induced neuronal cell death in bovine chromaffin cells assessed as cell viability at 10 uM after 24 hrs by LDH release assay relative to control; assay type: functional; conditions: Bos taurus, read-out: Activity
[6] = tested on: SH-SY5Y; assay: Neuroprotective activity against rotenone/oligomycin A-induced oxidative stress in human SH-SY5Y cells assessed as cell viability at 0.3 uM pretreated for 24 hrs measured 24 hrs post rotenone/oligomycin challenge by MTT assay relative to control; assay type: functional; conditions: read-out: Activity
[7] = biological target: T1, Mitochondrial sodium/calcium exchanger protein (Homo sapiens) (UniProt Q6J4K2); assay: Inhibition of mitochondrial sodium/calcium exchanger in human HeLa cells assessed as increase in maximal peak of histamine-induced mitochondrial calcium at 3 uM after 36 to 48 hrs by aequorin staining based bioluminescence assay; assay type: cell-based
T1 sequence (whole entry): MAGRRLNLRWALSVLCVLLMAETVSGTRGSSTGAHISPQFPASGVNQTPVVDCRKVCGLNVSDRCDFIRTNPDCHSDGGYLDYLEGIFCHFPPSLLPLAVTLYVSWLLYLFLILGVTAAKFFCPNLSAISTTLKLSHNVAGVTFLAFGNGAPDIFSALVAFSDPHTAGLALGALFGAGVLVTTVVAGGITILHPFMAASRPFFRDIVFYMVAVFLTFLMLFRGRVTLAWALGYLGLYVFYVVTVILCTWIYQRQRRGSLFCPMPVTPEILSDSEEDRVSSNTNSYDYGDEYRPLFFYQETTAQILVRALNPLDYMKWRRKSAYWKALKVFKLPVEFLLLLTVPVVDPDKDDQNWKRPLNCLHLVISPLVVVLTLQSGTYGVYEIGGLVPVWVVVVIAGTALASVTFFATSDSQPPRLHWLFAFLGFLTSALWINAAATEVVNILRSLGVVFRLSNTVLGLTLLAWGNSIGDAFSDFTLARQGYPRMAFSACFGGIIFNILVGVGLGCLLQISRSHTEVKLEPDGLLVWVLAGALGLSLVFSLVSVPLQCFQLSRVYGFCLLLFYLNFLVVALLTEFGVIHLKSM

[8] = biological target: T1, Mitochondrial sodium/calcium exchanger protein (Homo sapiens); assay: Inhibition of mitochondrial sodium/calcium exchanger in human HeLa cells assessed as increase in AUC of histamine-induced mitochondrial calcium at 3 uM after 36 to 48 hrs by aequorin staining based bioluminescence assay; assay type: cell-based
[9] = biological target: T1, Mitochondrial sodium/calcium exchanger protein (Homo sapiens); assay: Inhibition of mitochondrial sodium/calcium exchanger in human HeLa cells assessed as reduction in decay rate of histamine-induced mitochondrial calcium at 3 uM after 36 to 48 hrs by aequorin staining based bioluminescence assay; assay type: cell-based
[10] = organism: Bos taurus; assay: Inhibition of voltage gated calcium channel in bovine chromaffin cells assessed as blockade of depolarizing pulse-induced whole cell inward calcium currents by perforated patch clamp method; assay type: cell-based
[11] = tested on: HeLa; assay: Cytotoxicity against human HeLa cells assessed as reduction in cell viability at 0.3 to 30 uM after 24 hrs by MTT assay; assay type: cell-based
[12] = biological target: T1, Mitochondrial sodium/calcium exchanger protein (Homo sapiens); assay: Inhibition of mitochondrial sodium/calcium exchanger in human HeLa cells assessed as reduction in clearance of histamine-induced mitochondrial calcium at 3 uM after 36 to 48 hrs by aequorin staining based bioluminescence assay; assay type: cell-based
[13] = biological target: T2, Mitochondrial sodium/calcium exchanger protein (Homo sapiens, UniProt Q6J4K2); assay: Inhibition of mitochondrial sodium/calcium exchanger (unknown origin)
T2 sequence (Q6J4K2 whole entry): T1 sequence (whole entry)

With O=C1CSC(c2ccc(F)cc2)c2cc(Cl)cnc2N1 (stereo not given) the Activity [1] was “Non-toxic”, the inhibition [2] was “inactive” and the viability at 3 µM [3] was 27%. The viability at 10 µM [4] was 20%, the viability at 10 µM [5] was 22% and the viability at 0.3 µM [6] was 24%. For the same compound, the inhibition [7] was “Active”, the inhibition [8] was “Active” and the inhibition [9] was “Active”. For the same compound, the inhibition [10] was “inactive” and the Activity [11] was “Non-toxic”.

Work on CC12CC3CC(C)(C1)CC(N)(C3)C2 [MEMANTINE] yielded a viability at 10 µM [4] of 43%.

In the case of O=C1CSC(c2ccccc2Br)c2cc(Cl)cnc2N1 (stereo not given), the inhibition [12] is reported as “inactive”, the viability at 3 µM [3] is reported as 30% and the viability at 10 µM [4] is reported as 28%. The viability at 10 µM [5] was 23%, the viability at 0.3 µM [6] was 21% and the inhibition [9] was “Active”.

CCOc1ccccc1C1SCC(=O)Nc2ncc(Cl)cc21 (stereo not given) showed a viability at 3 µM [3] of 28%, a viability at 10 µM [4] of 11% and a viability at 10 µM [5] of 17%. The viability at 0.3 µM [6] was 26%.

Work on COc1ccc2[nH]cc(CCNC(C)=O)c2c1 [MELATONIN] yielded a viability at 0.3 µM [6] of 27%.

O=C1CSC(c2ccccc2C(F)(F)F)c2cc(Cl)cnc2N1 (stereo not given) showed a viability at 3 µM [3] of 19%, a viability at 10 µM [4] of 42% and a viability at 10 µM [5] of 17%. It also gave a viability at 0.3 µM [6] of 18%.

In the case of O=C1CSC(c2ccccc2Cl)c2cc(Cl)ccc2N1 (stereo not given), the IC50 [13] is reported as 1.6 µM, the viability at 3 µM [3] is reported as 36% and the viability at 10 µM [4] is reported as 37%. For the same compound, the viability at 10 µM [5] was 76%, the viability at 0.3 µM [6] was 18% and the inhibition [9] was “Active”. The inhibition ([10]; dose or concentration not given here) was 37%.

CC(C)c1ccccc1C1SCC(=O)Nc2ncc(Cl)cc21 (stereo not given) gave a viability at 3 µM [3] of 28%, a viability at 10 µM [4] of 33% and a viability at 10 µM [5] of 49%. For the same compound, the viability at 0.3 µM [6] was 19%.

O=C1CSC(c2ccccc2)c2cc(Cl)cnc2N1 (stereo not given) showed a viability at 3 µM [3] of 21%, a viability at 10 µM [4] of 33% and a viability at 10 µM [5] of 6%. For the same compound, the viability at 0.3 µM [6] was 30% and the inhibition [9] was “Active”.

In the case of COc1ccc(C2SCC(=O)Nc3ncc(Cl)cc32)cc1 (stereo not given), the viability at 3 µM [3] is reported as 10%, the viability at 10 µM [4] is reported as 34% and the viability at 10 µM [5] is reported as 27%. It also gave a viability at 0.3 µM [6] of 23%.

O=C1CSC(c2ccccc2Cl)c2cc(Cl)cnc2N1 (stereo not given) gave a viability at 3 µM [3] of 33%, a viability at 10 µM [4] of 27% and a viability at 10 µM [5] of 22%. For the same compound, the viability at 0.3 µM [6] was 11%.

Work on COc1ccccc1C1SCC(=O)Nc2ncc(Cl)cc21 (stereo not given) yielded a viability at 3 µM [3] of 17%, a viability at 10 µM [4] of 13% and a viability at 10 µM [5] of 27%. The viability at 0.3 µM [6] was 19%.

In the case of COC(=O)C1=C(C)NC(C)=C(C(=O)OC)C1c1ccccc1[N+](=O)[O-] [NIFEDIPINE], the viability at 3 µM [3] is reported as 24%.

Compound Cc1ccccc1C1SCC(=O)Nc2ncc(Cl)cc21 (stereo not given) has a viability at 3 µM [3] of 20%, a viability at 10 µM [4] of 27% and a viability at 10 µM [5] of 14%. For the same compound, the viability at 0.3 µM [6] was 21%.
